Where two headings read alike, the source gives them in different places.
Experiments:
[1] = system: L1210 mouse leukemia cells transformed with the pHaMDR1/A retrovirus carrying a MDR1 cDNA; assay: cells; assay type: cell-based; conditions: for MDR Ratio: IC50 Dox / IC50 Dox+Inhibitor, 2.5 μM compound; for IC50: Mus musculus, doxorubicin alone
Protocol: To assay the ability of the compounds according to this invention to increase the antiproliferative activity of a drug, cell lines which are known to be resistant to a particular drug may be used. These cell lines include, but are not limited to, the L1210, P388D, CHO and MCF7 cell lines. Alternatively, resistant cell lines may be developed. The cell line is exposed to the drug to which it is resistant, or to the test compound; cell viability is then measured and compared to the viability of cells which are exposed to the drug in the presence of the test compound.
To carry out assays using L1210 mouse leukemia cells transformed with the pHaMDR1/A retrovirus carrying a MDR1 cDNA, we follow the procedure described by Pastan et al., Proc. Natl. Acad. Sci., Vol. 85, […] 4490 (1988). The resistant line, labelled L1210VMDRC.06, is obtained from Dr. M. M. Gottesman of the National Cancer Institute. Drug-resistant transfectants are selected by culturing cells in […] colchicine.
Multi-drug resistance assays are conducted by plating cells (2×10^3, 1×10^4, or 5×10^4 cells/well) in 96 well microtiter plates and exposing them to a concentration range of doxorubicin (50 nM-10 μM) in the presence or absence of multi-drug resistance modifier compounds ("MDR inhibitors") of this invention (1, 2.5 or 10 μM) as described in Ford et al., Cancer Res., Vol. 50, 1748-1756. (1990). After culture for 3 days, the viability of cells is quantitated using MTT (Mossman) or XTT dyes to assess mitochondrial function. Also see, Mossman T., J. Immunol. Methods, Vol. 65, 55-63 (1983).
Results are determined by comparison of the IC50 for doxorubicin alone to the IC50 for doxorubicin+MDR inhibitor. An MDR ratio is calculated (IC50 Dox/ IC50 Dox+Inhibitor) and the integer value used for comparison of compound potencies. […]

[2] = target: FKBP12 (Homo sapiens, UniProt P62942); assay: FKBP12 binding assay (inhibition of rotomase activity); assay type: biochemical; conditions: apparent Ki
Source text: Preferably, the assay measures inhibition of FKBP12 rotomase activity. Such an assay has also been described by M. W. Harding et al., supra and by J. J. Siekierka et al., supra. In this assay the isomerization of an artificial substrate--N-succinyl-Ala-Ala-Pro-Phe-p-nitroanilide--is followed spectrophotometrically. The assay includes the cis form of the substrate, FKBP12, the inhibitor and chymotrypsin. Chymotrypsin is able to cleave p-nitroanilide from the trans form of the substrate, but not the cis form. Release of p-nitroanilide is measured.
The inhibition of FKBP rotomase activity by the preferred FKBP12 binding compounds present in the compositions of this invention was assayed. In this assay various quantities of FKBP12 binding compound (0nM-10 μM) were added to cis-N-succinyl-Ala-Ala-Pro-Phe-p-nitroanilide in the presence of FKBP12 and chymotrypsin. FKBP12 converts the cis form of the substrate to the trans form. This allows chymotrypsin to cleave p-nitroanilide from the substrate. Release of p-nitroanilide was measured spectrophotometrically. This assay allowed me to measure the change in the first order rate constant of the rotomase activity as a function of FKBP12 binding compound concentration and yielded an estimate of apparent Ki.

Sequence of FKBP12 (P62942 whole entry, species assumed): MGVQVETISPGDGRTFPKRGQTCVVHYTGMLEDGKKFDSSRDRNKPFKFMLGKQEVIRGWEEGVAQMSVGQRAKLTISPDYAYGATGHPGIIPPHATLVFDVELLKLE

| SMILES | Ki [2] [nM] | IC50 ([1]; L1210, read-out: IC50 DXR Alone, Date 4/21/95) [nM] | IC50 ([1]; L1210, read-out: IC50 DXR Alone, Date 5/12/95) [nM] | MDR Ratio ([1]; Date 4/21/95) | MDR Ratio ([1]; Date 5/12/95) |
| --- | --- | --- | --- | --- | --- |
| CCC/C=C(/c1cccnc1)c1cccc([C@H](CCN2CCOCC2)OC(=O)[C@@H]2CCCCN2C(=O)C(=O)c2cc(OC)c(OC)c(OC)c2)c1 [Compound 27] | 260 |  |  |  | 12.7 |
| COCc1cccc(COC)c1-c1cncc([C@@H](OC(=O)[C@@H]2CCCCN2C(=O)C(=O)c2ccco2)/C(C)=C/[C@H]2CC[C@H](O)CC2)c1 [Compound 40] | 500 |  |  |  | 2.5 |
| CCOCc1cccc(COCC)c1-c1csc([C@H](CCN2CCOCC2)OC(=O)[C@@H]2CCCCN2C(=O)C(=O)C2CCOCC2)c1 [Compound 61] | > 10000 |  |  |  | 2.5 |
| CCOCc1cccc(COCC)c1-c1cncc([C@H](CCN2CCOCC2)OC(=O)[C@@H]2CCCCN2C(=O)C(=O)C2(C)CCCCC2)c1 [Compound 76] | 400 |  |  |  | 6.4 |
| CCOCc1cccc(COCC)c1-c1cncc(C(CCN2CCOCC2)OC(=O)[C@@H]2CCCCN2C(=O)C(=O)C(C)(C)C(C)C)c1 (stereo partly shown) [Compound 89] | 263 |  |  |  | 5.0 |
| CCC/C=C(\c1cncc(C(OC(=O)[C@@H]2CCCCN2C(=O)C(=O)C2(O)CCC(OC)CC2)/C(C)=C/c2ccncc2)c1)C1CCCCC1 (stereo partly shown) [Compound 100] | 380 |  |  |  | < 14.0 |
| CCCc1ccc(CCC)n1-c1cccc([C@@H](CCN2CCOCC2)OC(=O)[C@@H]2CCCCN2C(=O)C(=O)[C@@H]2C[C@H](C(C)(C)OC)CC=C2C)c1 [Compound 107] | 7600 |  |  |  | 8.8 |
| CCCc1ccc(CCC)n1-c1cccc([C@@H](CCN2CCOCC2)OC(=O)[C@@H]2CCCCN2C(=O)C(=O)[C@@H]2C[C@H](OCC)CC[C@H]2C)c1 [Compound 111] | 800 |  |  |  | 9.3 |
| CCCCc1ccc(C)n1-c1cccc([C@@H](CCN2CCOCC2)OC(=O)[C@@H]2CCCCN2C(=O)C(=O)[C@@H]2C[C@H](C(C)(C)OC)CC[C@H]2C)c1 [Compound 112] | 930 |  |  |  | 10.8 |
| CCC/C(=C/COC)c1cncc([C@@H](CCN2CCOCC2)OC(=O)[C@@H]2CCCCN2C(=O)C(=O)[C@@H]2C[C@H](C(C)(C)OC)CC[C@H]2C)c1 [Compound 123] | 2800 |  |  | 12.4 |  |
| CCC/C(=C/COC)c1cncc(C(CCN2CCOCC2)OC(=O)[C@@H]2CCCCN2C(=O)C(=O)[C@@H]2C[C@H](OCC)CC[C@H]2C)c1 (stereo partly shown) [Compound 125] | 1100 |  |  |  |  |
| CCCCc1ccc(C)n1-c1cccc([C@@H](CCN2CCOCC2)OC(=O)[C@@H]2CCCCN2C(=O)C(=O)[C@@H]2C[C@H](C(C)C)CC[C@H]2C)c1 [Compound 126] | 3000 |  |  |  |  |
| CCC/C=C(\c1cncc([C@@H](CCN2CCOCC2)OC(=O)[C@@H]2CCCCN2C(=O)C(=O)[C@@H]2C[C@H](C(C)(C)OC)CC[C@H]2C)c1)C(C)C [Compound 129] | 1200 |  |  |  |  |
| CCC/C=C(\c1cncc([C@@H](CCN2CCOCC2)OC(=O)[C@@H]2CCCCN2C(=O)C(=O)[C@@H]2C[C@H](OCC)CC[C@H]2C)c1)C(C)C [Compound 130] | 490 |  |  |  |  |
| CCC/C=C(\c1cncc([C@@H](CCN2CCOCC2)OC(=O)[C@@H]2CCCCN2C(=O)C(=O)[C@@H]2C[C@@H](OCC)CN2C(C)=O)c1)C(C)C [Compound 132] | > 10000 |  |  |  |  |
| CCC/C=C(/C)c1cncc([C@@H](CCN2CCOCC2)OC(=O)[C@@H]2CCCCN2C(=O)C(=O)[C@@H]2C[C@H](C(C)(C)OC)CC[C@H]2C)c1 [Compound 133] | 315 |  |  |  |  |
| COc1cccc2c1C(=O)c1c(O)c3c(c(O)c1C2=O)C[C@@](O)(C(=O)CO)C[C@@H]3O[C@H]1C[C@H](N)[C@H](O)[C@H](C)O1 [DXR, doxorubicin, reference compound] |  | 2100 | 700 |  |  |

The next lines start with results.

| Ki [2] [nM] | IC50 ([1]; L1210, read-out: IC50 DXR Alone, Date 4/21/95) [nM] | IC50 ([1]; L1210, read-out: IC50 DXR Alone, Date 5/12/95) [nM] | SMILES | MDR Ratio ([1]; Date 4/21/95) | MDR Ratio ([1]; Date 5/12/95) |
| --- | --- | --- | --- | --- | --- |
| 31 |  |  | CCCOc1ccc(OCCC)c(-c2cncc([C@@H](CCCc3ccccc3)OC(=O)[C@@H]3CCCCN3C(=O)C(=O)c3cc(OC)c(OC)c(OC)c3)c2)c1 [Compound 22] | 12.4 | 1.3 |
| 0.5 |  |  | COc1cc(C(=O)C(=O)N2CCCC[C@H]2C(=O)O[C@H](CCCc2ccccc2)c2cncc(-c3c(OC)cccc3OC)c2)cc(OC)c1OC [Compound 24] |  | > 14.0 |
| 2.4 |  |  | CCC/C=C(/c1cccnc1)c1cccc([C@@H](CCN2CCOCC2)OC(=O)[C@@H]2CCCCN2C(=O)C(=O)c2cc(OC)c(OC)c(OC)c2)c1 [Compound 26] |  | 8.8 |
| 20 |  |  | CC/C=C(/c1cccnc1)c1cccc([C@H](CCCc2ccccc2)OC(=O)[C@@H]2CCCCN2C(=O)C(=O)c2cc(OC)c(OC)c(OC)c2)c1 [Compound 28] |  | 10.0 |
| 27 |  |  | CCC/C=C(\c1cccnc1)c1cccc([C@@H](CCN2CCOCC2)OC(=O)[C@@H]2CCCCN2C(=O)C(=O)c2cc(OC)c(OC)c(OC)c2)c1 [Compound 30] |  | 14.0 |
| 9.8 |  |  | COc1cc(C(=O)C(=O)N2CCCC[C@H]2C(=O)O[C@H](/C(C)=C/[C@H]2CC[C@H](O)CC2)c2cncc(-c3c(OC)cccc3OC)c2)cc(OC)c1OC [Compound 32] |  | 11.7 |
| 180 |  |  | CCOCc1cc2ccccc2n1-c1cccc([C@@H](OC(=O)[C@@H]2CCCCN2C(=O)C(=O)c2ccco2)/C(C)=C/[C@H]2CC[C@H](O)CC2)c1 [Compound 43] |  | 14.0 |
| 200 |  |  | C=CCC/C=C(/c1cccnc1)c1ccc([C@@H](OC(=O)[C@@H]2CCCCN2C(=O)C(=O)C(C)(C)C)/C(C)=C/C2CCN(C)CC2)s1 [Compound 52] | 5.8 | 4.1 |
| 71 |  |  | COC/C=C(\c1cncc([C@@H](OC(=O)[C@@H]2CCCCN2C(=O)C(=O)CC(C)C)/C(C)=C/[C@H]2CC[C@H](O)CC2)c1)C1CCCCC1 [Compound 59] |  | 10.8 |
| 12 |  |  | CCOCc1cccc(COCC)c1-c1ccc([C@@H](CCN2CCOCC2)OC(=O)[C@@H]2CCCCN2C(=O)C(=O)C2(C)CCCCC2)s1 [Compound 79] |  | 7.8 |
| 9 |  |  | C=CCC/C=C(/c1cccnc1)c1ccc(C(CCN2CCOCC2)OC(=O)[C@@H]2CCCCN2C(=O)C(=O)C(C)(C)C(C)C)s1 (stereo partly shown) [Compound 90] |  | 7.4 |
| 8 |  |  | C=CCC/C=C(\c1ccc(C(CCN2CCOCC2)OC(=O)[C@@H]2CCCCN2C(=O)C(=O)C(C)(C)C(C)C)s1)C1CCOCC1 (stereo partly shown) [Compound 91] |  | 2.7 |
| 94 |  |  | CCCc1ccc(CCC)n1-c1cccc([C@@H](CCN2CCOCC2)OC(=O)[C@@H]2CCCCN2C(=O)C(=O)[C@@H]2CCCC[C@H]2C)c1 [Compound 105] |  | 5.4 |
| 61 |  |  | CCC/C(=C/COC)c1cncc([C@@H](CCN2CCOCC2)OC(=O)[C@@H]2CCCCN2C(=O)C(=O)C(C)(C)C(C)C)c1 [Compound 113] |  | 7.0 |
| 19 |  |  | CCO[C@@H]1CC[C@@H](C)[C@H](C(=O)C(=O)N2CCCC[C@H]2C(=O)O[C@H](CCN2CCOCC2)c2cccc(-n3c(C)ccc3C)c2)C1 [Compound 127] |  |  |
| 41 |  |  | CCC/C=C(\c1cncc([C@@H](CCN2CCOCC2)OC(=O)[C@@H]2CCCCN2C(=O)C(=O)[C@@H]2CCCC[C@H]2C)c1)C(C)C [Compound 128] |  |  |
| 90 |  |  | CCC/C(=C/COC)c1cncc(C(OC(=O)[C@@H]2CCCCN2C(=O)C(=O)[C@@H]2CCCC[C@H]2C)/C(C)=C/C2CCOCC2)c1 (stereo partly shown) [Compound 131] |  |  |

Reference: patent publication US5935954A, “Compounds with improved multi-drug resistance activity” (Vertex Pharmaceuticals Incorporated, priority 1997, dated 1999)
